Reference: patent publication US6458838B1, “Adrenoleukodystrophy treatments” (Johns Hopkins University, priority 1999, dated 2002)

Assays:
Type in all cases: cell-based
[1] = tested on: human X-ALD primary skin fibroblasts; assay: Immunofluorescence peroxisome counting; conditions: for peroxisome number, Increase / peroxisome number, Treated: 10 day exposure to 5 mM 4PBA
Text: Peroxisomes were made visible with immunofluorescence using a polyclonal antibody to the C-terminal tripeptide (SKL) peroxisome targeting signal 1 (PTS1), which is present in most peroxisomal matrix proteins. […] Slides were scanned visually and cells categorized as having low, medium or high numbers of peroxisomes. For each cell line, the number of peroxisomes is the mean of three ‘low’, four ‘medium’ and three ‘high’ cells (Table 3). There was no difference between control cells and X-ALD cells in either the number of peroxisomes per cell or in the response to 4-PBA. […] The 2.4-fold increase in the number of peroxisomes per cell was statistically significant (P<0.0000001, two-tailed Student's t-test). Peroxisome numbers obtained with an antibody against a peroxisomal membrane protein (Pex14p) gave similar results (data not shown).
Immunofluorescence and peroxisome counting. […] The anti-SKL (PTSI) antibody was a gift from S. Gould and the anti-Pex11α antibody was a gift from S. Mihalik. To count peroxisomes, we photographed immunofluorescence-stained cells after focusing on the cell nucleus, and determined the peroxisome number per cell with the aid of a colon counter after projecting the slides to enlarge the image.

[2] = tested on: X-ALD human primary fibroblasts; assay: C24:0 β-oxidation activity ([1-14C]-C24:0 to water-soluble products)
Description: (§1) Human Tibroblast C24:0 β-oxidation increased from 25% to 48% of normal; human lymphobfastoid cells, from 18% to 53% of normal; and mouse fibroblasts, from 15% to 29% of normal. […] There are several possible mechanisms that could account for the action of 4-PBA in X-ALD.
(§2) Cell culture and 4-PBA treatment. Cell lines derived from X-ALD patients and X-ALD mice were grown in MEM (fibroblasts) or RPMI (ymphoblastoid cells) supplemented with fetal calf serum (10%), penicillin (100 U/ml), streptomycin (100 U/mi) and glutamine (2 mM). […] Cells in the second flask were grown without drug for the same length of time and served as controls. The media were changed every 3-4 days.
(§3) Biochemical measurements. […] For VLCFA measurements, total lipids were extracted, converted to methyl esters, purified by TLC and subjected to capillary GC analysis as described. Duplicate assays were set up independently and were assayed on different days. C24:0 β-oxidation activity of human and mouse fibroblasts and human lymphoblastoid cells was determined by measuring their capacity to degrade [1-^14C]-C24:0 fatty acid (American Radiolabeled Chemicals, St Louis, Mo.) to water-soluble products as described. Phytanic acid oxidation was measured as described. Cells were incubated with [2,3-^3H]-phytanic acid for 24 hours, and the release of ^3H-H2O to the aqueous medium was determined (activity in pmol/hr per mg protein).

[3] = tested on: X-ALD human lymphoblastoid cells; assay: as above; conditions: 5 mM 4PBA for 6 days
Description: as §1, §2, §3

[4] = tested on: X-ALD mouse primary fibroblasts; assay: as above; conditions: 5 mM 4PBA for 6 days
Description: as §1, §2, §3

[5] = cell line X-ALD (fs E471), first of two independent lines
[6] = cell line X-ALD (fs E471), second of two independent lines

O=C(O)CCCc1ccccc1 [4-PBA, 4-Phenyl butyrate]
peroxisome number seen by immunofluorescence ([1]; 5 mM 4-PBA, after 8 days of treatment): approximately twofold increase | peroxisome number, Increase ([1]; Mean of five X-ALD cell lines): 2.5 fold | peroxisome number, Treated ([1]; Mean of five X-ALD cell lines): 1074 ± 92 peroxisomes per cell | increase in number of peroxisomes per cell ([1]; X-ALD and control cell lines combined, 10 days 5 mM 4-PBA): 2.4 fold | peroxisome number, Increase ([1]; cell line X-ALD (A626T)): 2.4 fold | peroxisome number, Treated ([1]; cell line X-ALD (A626T)): 968 ± 349 peroxisomes per cell | peroxisome number, Increase ([1]; cell line X-ALD (R591Q)): 2.8 fold | peroxisome number, Treated ([1]; cell line X-ALD (R591Q)): 1159 ± 363 peroxisomes per cell | peroxisome number, Increase ([1]; cell line X-ALD (exon 7-10del)): 2.6 fold | peroxisome number, Treated ([1]; cell line X-ALD (exon 7-10del)): 1164 ± 378 peroxisomes per cell | peroxisome number, Increase [1, 5]: 2.2 fold | peroxisome number, Treated [1, 5]: 992 ± 344 peroxisomes per cell | peroxisome number, Increase [1, 6]: 2.7 fold | peroxisome number, Treated [1, 6]: 1089 ± 365 peroxisomes per cell | peroxisomes per cell after exposure, combined results ([1]; five X-ALD and four control cell lines combined, 10 days 5 mM 4-PBA, 416±27 before exposure): 1014±108 peroxisomes per cell | increase in C24:0 β-oxidation ([2]; 5 mM 4-PBA for 6 days, all X-ALD cell lines tested (human and mouse)): twofold to threefold increase | C24:0 β-oxidation, Increase (treated vs untreated) ([2]; 5 mM 4PBA for 6 days): 1.95 fold | C24:0 β-oxidation, Increase (treated vs untreated) [3]: 2.92 fold | C24:0 β-oxidation, Increase (treated vs untreated) [4]: 1.87 fold
